Laboratory results reported in PMC8037814, “Polymorphic Characterization, Pharmacokinetics, and Anti-Inflammatory Activity of Ginsenoside Compound K Polymorphs” (Molecules, 2021).
Several values for one entry are separate records, joined by “and”; a condition that tells them apart may be missing. Equal values may be shown once.

Legend:
[1] = Pharmacokinetics after oral administration of CK polymorphs in rats (20 mg/kg); assay type: in vivo, Sprague-Dawley rats; details: p.o. 20 mg/kg, individual rats 1-3
[2] = system: carrageenan-induced acute paw inflammation; assay: Paw swelling test induced by carrageenan in rats; assay type: in vivo, Sprague-Dawley rats; design: paw volume: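 right hind paw volume measured with a plethysmometer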; details: listed as From III; for paw volume / paw edema: mean±SD of 6 rats; for edema inhibition: versus model group
How it was run: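 Rats (six per group, half of each sex) received compound at 10 or 20 mg/kg, suspended in 0.5% CMC-Na, before carrageenan challenge. Paw edema (%) = (Vn − V0)/V0 × 100 over time; inhibitory rate relative to model group, compared by t-test.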

[3] = DSC thermal analysis of CK polymorphs; assay type: physicochemical; details: 20 K/min from 20 to 400 °C, dry nitrogen flow
Method: DSC measurements were performed on a DSC204 Phoenix calorimeter (NETZSCH, Selb, Germany) with a heating rate of 20 K/min from 20 to 400 °C. The dry nitrogen flow was about 50 mL/min. Data were analyzed using NETZSCH analysis software.

[4] = Pharmacokinetics after oral administration of CK polymorphs in rats (20 mg/kg); assay type: in vivo, Sprague-Dawley rats; details: for Fabs (absolute bioavailability): p.o. 20 mg/kg vs i.v. 10 mg/kg, dose-adjusted AUC ratio; for t1/2z / AUC(0–t) / AUC(0–∞) / CLz/F / Cmax / Vz/F: p.o. 20 mg/kg, 20 mg/kg
[5] = 10 mg/kg p.o. qd 3 days, 3h after carrageenan
[6] = 10 mg/kg p.o. qd 3 days, 4h after carrageenan
[7] = 10 mg/kg p.o. qd 3 days, 5h after carrageenan
[8] = 10 mg/kg p.o. qd 3 days, 6h after carrageenan
[9] = 20 mg/kg p.o. qd 3 days, 3h after carrageenan
[10] = 20 mg/kg p.o. qd 3 days, 4h after carrageenan
[11] = 20 mg/kg p.o. qd 3 days, 5h after carrageenan
[12] = 20 mg/kg p.o. qd 3 days, 6h after carrageenan

## CC(C)=CCCC(C)(OC1OC(CO)C(O)C(O)C1O)C1CCC2(C)C1C(O)CC1C3(C)CCC(O)C(C)(C)C3CCC12C [Form III, 20-O-β-D-glucopyranosyl-20(S)-protopanaxadiol]
[1]; female rats
  AUC(0-t): 1577.20 ng·h/mL and 2580.19 ng·h/mL and 1451.26 ng·h/mL
  AUC(0-∞): 1582.68 ng·h/mL and 2592.62 ng·h/mL and 1513.29 ng·h/mL
  CLz/F: 210.7 mL/min/kg and 128 mL/min/kg and 220.3 mL/min/kg
  Cmax: 263.79 ng/mL and 412.66 ng/mL and 388.92 ng/mL
  Vz/F: 51.35 L/kg and 34.03 L/kg and 48.90 L/kg
[1]; male rats
  AUC(0-t): 656.21 ng·h/mL and 1550.66 ng·h/mL and 1308.63 ng·h/mL
  AUC(0-∞): 662.23 ng·h/mL and 1560.11 ng·h/mL and 1328.10 ng·h/mL
  CLz/F: 503.3 mL/min/kg and 213.7 mL/min/kg and 251 mL/min/kg
  Cmax: 90.26 ng/mL and 144.54 ng/mL and 218.65 ng/mL
  t1/2z: 2.68 h and 3.83 h and 3.40 h
[2]; 10 mg/kg p.o. qd 3 days, 0h (before carrageenan)
  paw volume: 1.60±0.11
[2]; [5]
  paw edema: 56.76±9.61%
  paw volume: 2.50±0.06
  edema inhibition: 11.69%
[2]; [6]
  paw edema: 58.19±18.49%
  paw volume: 2.52±0.17
  edema inhibition: 6.69%
[2]; [7]
  paw edema: 42.15±12.34%
  paw volume: 2.27±0.14
  edema inhibition: 18.56%
[2]; [8]
  paw edema: 30.81±14.08%
  paw volume: 2.08±0.15
  edema inhibition: 21.63%
[2]; 20 mg/kg p.o. qd 3 days, 0h (before carrageenan)
  paw volume: 1.63±0.12
[2]; [9]
  paw edema: 55.29±13.62%
  paw volume: 2.53±0.25
  edema inhibition: 13.98%
[2]; [10]
  paw edema: 48.28±7.79%
  paw volume: 2.42±0.13
  edema inhibition: 22.59%
[2]; [11]
  paw edema: 34.20±12.28%
  paw volume: 2.18±0.15
  edema inhibition: 33.94%
[2]; [12]
  paw edema: 27.94±7.14%
  paw volume: 2.08±0.08
  edema inhibition: 28.94%
[3]
  DSC onset of the decomposition endotherm (thermodynamical stability): 255.9 °C
[4]; female rats
  Fabs (absolute bioavailability): 5.85%
[4]; female rats, individual rats 1-3
  t1/2z: 2.82 h and 3.06 h and 2.56 h
[4]; female rats, mean ± SD (n = 3)
  AUC(0–t): 1869.55 ± 618.65 ng·h/mL and 1869.6 ± 618.65 ng·h/mL
  AUC(0–∞): 1896.19 ± 604.12 ng·h/mL and 1896.2 ± 604.12 ng·h/mL
  CLz/F: 186.5 ± 50.3 mL/min/kg and 187 ± 50.3 mL/min/kg
  Cmax: 355.12 ± 79.98 ng/mL and 355.1 ± 79.98 ng/mL
  Vz/F: 44.76 ± 9.37 L/kg and 44.8 ± 9.37 L/kg
  t1/2z: 2.81 ± 0.25 h and 2.8 ± 0.25 h
[4]; male rats
  Fabs (absolute bioavailability): 3.90%
[4]; male rats, individual rats 1-3
  Vz/F: 148.10 L/kg and 49.55 L/kg and 83.24 L/kg
[4]; male rats, mean ± SD (n = 3)
  AUC(0–t): 1171.83 ± 462.65 ng·h/mL and 1171.8 ± 462.65 ng·h/mL
  AUC(0–∞): 1183.48 ± 466.08 ng·h/mL and 1183.5 ± 466.08 ng·h/mL
  CLz/F: 322.7 ± 158 mL/min/kg and 323 ± 158 mL/min/kg
  Cmax: 151.15 ± 64.45 ng/mL and 151.2 ± 64.45 ng/mL
  Vz/F: 93.63 ± 50.09 L/kg and 93.6 ± 50.1 L/kg
  t1/2z: 3.3 ± 0.58 h
